Laboratory results: US8778884B2, “Glioprotectant peptide for use in the treatment of amyotrophic lateral sclerosis (ALS) and methods related thereto” (Fondazione Salvatore Maugeri Clinica del Lavora e Della …, priority 2011, dated 2014)
“And” between values parts separate entries of the source, which are not always exact repeats. Identical values can stand only once. “Also recorded” adds a separate entry of the source.

Tests used:
astrocyte cultures = experiment: astrocyte toxicity assay, staurosporine challenge (nuclear condensation); type: cell-based, mouse
Experimental: (§1) Pharmacological treatments in vitro. To assess the ability of TAT-BH4 to penetrate into cells, astrocytes (8×10^4 cells/well) were plated in 24-well plates containing glass coverslips. Cultures were treated with 10 μg/ml Hoechst 33342 (Sigma) for 15 min., quickly washed and incubated with 0.5 μM TAT-BH4 (TAT^48-57 conjugated to the BH4 domain of Bcl-XL) either unconjugated or conjugated with 5(6)-carboxyfluorescein (FAM, Primm srl) for 30 min. Peptides in excess were subsequently removed, cells were washed and immediately fixed (methanol:acetone 1:1 for 10 min.) or maintained in culture for 24 hrs and then fixed. The presence of the peptides inside the cells was evaluated by a digital camera (DFC 310 FX, Leica Microsystem) mounted on a DM5000 B microscope (Leica Microsystem) and analysed by Leica Application Suite 3.5.0 software. […]
(§2) Astrocyte toxicity assays. The toxic effect of DHPG or staurosporine on cultured astrocytes was determined by double staining with the fluorescent nuclear dye Hoechst 33342 and anti-active caspase-3 immunocytochemistry using a rabbit polyclonal antibody (1:50, Cell Signalling Technology). The number of astrocytes showing condensed nuclei and activated caspase-3 24 hrs after the pharmacological challenge was counted by two independent operators in a blind manner. […]

wild-type astrocytes = experiment: single-cell Fluo4 [Ca^2+]i imaging in wild-type astrocytes; type: cell-based, mouse
Experimental: (§3) Astrocytes cultures. Primary astrocyte cultures (>99% GFAP-positive) were prepared from the spinal cord of newborn mice (hSOD1^G93A or wild-type littermates). Once the cultures reached the confluence, they were replated at the optimal density either in 24-well plates or 35-mm Petri dishes containing glass coverslips and maintained in Minimal Essential Medium (MEM, GIBCO) supplemented with 10% foetal bovine serum (FBS, Sigma-Aldrich).
(§4) [Ca^2+]i imaging. ASTROCYTES were plated (2.5×10^4 cells/35 mm Petri dish) on glass coverslips and used 2-3 days later as already shown. Before imaging, cells were loaded with 5 μM Fluo4-AM (Molecular Probes) for 15-20 min. at 37° C. in a HEPES-KRH buffer containing (in mM): NaCl 116, KCl 4, MgCl2 1, CaCl2 1.8, HEPES-acid 10, glucose 25 (pH 7.4) and then allowed to de-esterify for 10 min. After several washes, coverslips were mounted in an open perfusion micro-incubator (PDMI-2, Harvard Apparatus) set at 37° C. on the stage of the optical recording microscope. During experiments, cells were continuously perfused with HEPES-KRH (1 ml/min), and 100 μM DHPG was applied via a software-controlled micro-perfusion fast-step device (100 μl/min, Warner Instrument Corp.) A Zeiss Axiovert 200 inverted fluorescence microscope was modified to allow EPI illumination (Visitron Systems). Fluo4 fluorescence was recorded through a 63× or 40× objectives lens (Zeiss, Neofluar 63×/1.25 Oil, Neofluar 40×/1.3 Oil) and directed through a Zeiss filter set 10 (BP 450-490; BP 515-565) at 200- or 400 ms of intervals by imaging with excitation light at 488 nm generated by a polychromator illumination system (Visichrome, Visitron). Video images, digitized with MetaFluor, were analyzed with MetaMorph software (Universal Imaging). Temporal dynamics of Fluo4 fluorescence have been expressed as background-subtracted ΔF/F0(%), where F0 represents the fluorescence level of the cells before stimulation, and F represents the change in fluorescence occurring during the stimulus.
(§5) [Ca^2+]i imaging. The measurements of [Ca^2+]i were performed as described in Example 2. Briefly, cells were loaded with 5 μM Fluo4-AM and then allowed to de-esterify for 10 min.
(§6) After several washes, coverslips were mounted in an open perfusion micro-incubator set at 37° C. on the stage of the optical recording microscope. During experiments, cells were continuously perfused with HEPES-KRH (1 ml/min), and 0.5 μM TAT-BH4 was applied 30 min. before adding 100 μM DHPG via a software-controlled micro-perfusion fast-step device (100 μl/min, Warner Instrument Corp.).

[1] = test system: hSOD1^G93A-expressing astrocytes; experiment: single-cell Fluo4 [Ca^2+]i imaging in hSOD1^G93A-expressing astrocytes; type: cell-based, mouse
Experimental: as §3, §4, §5, §6

[2] = test system: hSOD1^G93A-expressing astrocytes; experiment: astrocyte toxicity assay, DHPG challenge (nuclear condensation, active caspase-3); type: cell-based, mouse
Experimental: as §1, §2

[3] = test system: hSOD1^G93A-expressing astrocytes; experiment: cytochrome c release (co-localization of Cyt c with SOD2); type: cell-based, mouse; conditions: DHPG 100 μM
Experimental: Pharmacological treatments in vitro. To assess the ability of TAT-BH4 to penetrate into cells, astrocytes (8×10^4 cells/well) were plated in 24-well plates containing glass coverslips. Cultures were treated with 10 μg/ml Hoechst 33342 (Sigma) for 15 min., quickly washed and incubated with 0.5 μM TAT-BH4 (TAT^48-57 conjugated to the BH4 domain of Bcl-XL) either unconjugated or conjugated with 5(6)-carboxyfluorescein (FAM, Primm srl) for 30 min. Peptides in excess were subsequently removed, cells were washed and immediately fixed (methanol:acetone 1:1 for 10 min.) or maintained in culture for 24 hrs and then fixed. The presence of the peptides inside the cells was evaluated by a digital camera (DFC 310 FX, Leica Microsystem) mounted on a DM5000 B microscope (Leica Microsystem) and analysed by Leica Application Suite 3.5.0 software. To test the protective efficacy of TAT-BH4, astrocytes in culture were pre-exposed to different concentrations of the peptide (0.1 and/or 0.5 μM, 30 min.), washed and then treated with DHPG (100 μM, 30 min., Tocris Cookson Ltd.) or staurosporine (1 μM, 6 hrs, Sigma-Aldrich). After removal of DHPG, astrocytes were allowed to recover at 37° C. for 24 hrs.
Cytochrome c release. […] Cytochrome c release from mitochondria was determined by its co-localization with the mitochondrial protein SOD2 using JACoP plug-in ImageJ. […]

hSOD1^G93A mice [4] = experiment: histopathological analysis of spinal cord of treated hSOD1^G93A mice; type: in vivo, mouse; conditions: 5 mg/kg i.p. daily
Excerpt: Tissue preparation and immunohistological analysis. For mouse tissue preparation, the spine was taken and immersed in 4% buffered paraformaldehyde for 24 hrs; spinal cord was extracted, the lumbar tract was removed and either paraffin embedded or cryoprotected in 30% sucrose before freezing. For human tissue preparation, spinal cord was removed and 0.5 cm thick slices were taken from the cervical (C7), thoracic (T4 and T8) and lumbar (L1) levels. Slices were fixed in 10% buffered formalin and embedded in paraffin. Mouse or human spinal cords were sectioned at 5-10 μm and used to perform different immunostainings. On selected sections, the following primary antibodies were used: GFAP (mouse monoclonal antibody, 1:50, Dako), CD11b (rat monoclonal antibody, 1:500, Serotec), mGluR5 (rabbit polyclonal antibody, 1:100, MBL International Corporation); active caspase-3 (rabbit polyclonal antibody, 1:50, Cell Signalling Technology). For active caspase-3 immunostaining, a Tyramide Amplification System kit was used (Perkin Elmer, Inc.). For histopathological analysis, serial sections were either immunostained for GFAP/active caspase-3 or treated with 0.5% cresyl violet (Sigma Aldrich) to detect motor neuron Nissl substance. GFAP/active caspase-3 positive astrocytes and motor neurons were counted for a total of 9 disectors using an unbiased stereologic physical disector technique. Z-axis image stacks (z-step size: 0.5 μm) were collected to generate three-dimensional data sets of spinal cord sections on an MRC 1024 Bio-Rad confocal microscope with a 63× Plan Neofluar NA1,25 oil-immersion objective in condition of optimal iris diameter as defined by LaserSharp 2000 software. Quantitative analysis of punctuate mGluR5, GFAP or CD11 b stainings was performed on confocal acquired images (1024×1024 pixels) of the spinal cord ventral horns from both wild-type and SOD1^G93A animals using ImageJ software (National Institutes of Health). After establishing an intensity threshold, the software calculated the percentage of area occupied by mGluR5, GFAP or CD11b staining by dividing the area of immunopositivity by the total area.
(§7) Pharmacological treatment in vivo. hSOD1^G93A mice were administrated daily 5 mg/kg TAT-BH4 peptide in PBS containing 10% glycerol or vehicle alone (PBS plus 10% glycerol) intraperitoneally starting at the age of 40 days (n=14 mice for each condition). Mice were thereafter kept under daily observation and weighted twice a week. Age of disease onset was retrospectively determined as the time when mice reached the peak in the body weight. Motor performance was assessed twice a week by rotarod test starting at the age of 50 days. Briefly, animals were place on an accelerating rod (Ugo Basile) and the time each mouse remained on the rod was recorded. The average of three independent trials per session was used for further analysis of the data. End stage was defined as the time in which animals were unable to right themselves within 30 seconds when placed on their side.

hSOD1^G93A mice [5] = experiment: chronic treatment of hSOD1^G93A mice: disease onset, rotarod, survival; type: in vivo, mouse; conditions: 5 mg/kg i.p. daily from age 40 days
Experimental: Transgenic mice. Transgenic mice expressing human SOD1^G93A (B6SJL-TgN(SOD1-G93A)1Gur were purchased from The Jackson Laboratories. The colonies were maintained by breeding hemizygote males to wild-type C57BI6/SJL F1 hybrid females. Offspring were genotyped and used for subsequent studies. Animal procedures were approved by the Italian Ministry of Health.
as §7
Statistics. Data are represented as mean±s.e.m. and statistical significance is verified using GraphPad Prism software. Unpaired or paired 2-tailed t-test was used for comparisons between two groups; one-way or two-way analysis of variance (ANOVA) followed by Bonferroni post-hoc test was used for comparisons of multiple groups; repeated measures two-way ANOVA was used for behavioral test; the Logrank test was used for disease onset and survival analysis.

[6] = TAT-BH4 0.5 μM 30 min before DHPG 100 μM
[7] = TAT-BH4 0.5 μM 30 min before STS 1 μM

Compound: CN[C@@H]1C[C@H]2O[C@@](C)([C@@H]1OC)n1c3ccccc3c3c4c(c5c6ccccc6n2c5c31)C(=O)NC4 [STS, staurosporine, reference compound]
- percentage of cells with nuclear condensation, effect of STS (astrocyte cultures; STS 1 μM, 6 h): caused an increment in the percentage of cells with nuclear condensation
- amplitude of [Ca^2+]i plateau (wild-type astrocytes; STS 1 μM): 3.52±0.22 ΔF/F0
- time to plateau of long-lasting calcium rise (wild-type astrocytes; STS 1 μM): 75 to 80 min

Compound: NC(C(=O)O)c1cc(O)cc(O)c1 (racemic) [DHPG, (RS)-3,5-dihydroxyphenylglycine, reference compound]
- change of initial [Ca^2+]i transient (ΔF/F0) with respect to wild-type cells ([1]; DHPG 100 μM): −63%
- peak amplitude of initial DHPG-evoked [Ca^2+]i transient ([1]; DHPG 100 μM): 0.1±0.08 ΔF/F0
- time to plateau of long-lasting [Ca^2+]i rise ([1]; DHPG 100 μM): about 10 min
- percentage of astrocytes with nuclear condensation and caspase-3 activation, effect of DHPG ([2]; DHPG 100 μM, compared with wild-type cells): induces an increment
- mitochondria and cytochrome c, effect of DHPG [3]: causes mitochondrial disarrangement and release of cytochrome c
- average [Ca^2+]i oscillation frequency (wild-type astrocytes; DHPG 100 μM): 17±2.5 mHz
- peak amplitude of initial DHPG-evoked [Ca^2+]i transient (wild-type astrocytes; DHPG 100 μM): 0.27±0.18 ΔF/F0

Compound: H2N-GRKKRRQRRRGGSNRELVVDFLSYKLSQKGYS-COOH (H-GRKKRRQRRRGGSNRELVVDFLSYKLSQKGYS-OH) [TAT-BH4, BH4 domain of Bcl-XL fused via GG to the protein transduction domain of the HIV TAT protein]
- CD11b-immunopositive microglial cells (hSOD1^G93A mice [4]; n=18 fields from three mice): 1040.7±20.4 cells/mm^2
- GFAP-positive astrocytes in spinal ventral horns (hSOD1^G93A mice [4]; n=18 fields from three mice): 917.9±33.1 cells/mm^2
- change in number of spheroid astrocytes immunopositive for active caspase-3, with respect to saline-treated mice (hSOD1^G93A mice [4]; 100 day-old mice): −74%
- number of caspase-3-positive cells compared to saline (hSOD1^G93A mice [4]; 100 day-old mice): significantly lower
- number of motor neurons in spinal cord (hSOD1^G93A mice [4]; 100 day-old mice): preservation of a greater number of motor neurons
- cells with nuclear condensation (apoptotic cells) after STS, effect of peptide (astrocyte cultures; TAT-BH4 0.1 or 0.5 μM 30 min pre-incubation, STS 1 μM 6 h): reduced the number of apoptotic cells in a dose-dependent manner; also recorded: potently inhibited in a dose-dependent fashion
- average [Ca^2+]i oscillation frequency after DHPG [1, 6]: 14±3.1 mHz
- percentage of cells in which DHPG evokes a single [Ca^2+]i transient followed by sustained [Ca^2+]i oscillations (pattern as in wild-type) [1, 6]: 100% and 99%
- [Ca^2+]i response to local application of the peptide alone ([1]; TAT-BH4 0.5 μM, 30 min): immediate [Ca^2+]i rise followed by sustained [Ca^2+]i oscillations
- percentage of astrocytes with nuclear condensation and caspase-3 activation after DHPG, effect of peptide ([2]; TAT-BH4 0.5 μM 30 min pre-treatment, DHPG 100 μM 30 min, 24 hrs recovery): significantly reduced; also recorded: significant reduction
- release of cytochrome c / co-localization of Cyt c and SOD2 after DHPG, effect of peptide ([3]; TAT-BH4 0.5 μM 30 min pre-treatment): restores the complete co-localization of the two proteins; also recorded: significant reduction
- extension of life span (hSOD1^G93A mice [5]): 15 days
- rotarod motor performance compared to saline-treated animals (hSOD1^G93A mice [5]): significantly improves motor performance; also recorded: performed significantly better
- age at disease onset (peak body weight) (hSOD1^G93A mice [5]; n=14): 107.5 ± 1.8 days
- survival time (hSOD1^G93A mice [5]; n=14): 138 ± 2.1 days
- delay of onset of symptoms compared to controls (hSOD1^G93A mice [5]; onset = peak body weight): 8 days
- change of persistent [Ca^2+]i rise evoked by STS, with respect to STS alone (wild-type astrocytes; [7]): −72%
- effect on [Ca^2+]i oscillations in STS-treated cells (wild-type astrocytes; [7]): restored [Ca^2+]i oscillations; also recorded: re-establishment of [Ca^2+]i oscillations
- [Ca^2+]i response to local application of the peptide alone (wild-type astrocytes; TAT-BH4 0.5 μM, 30 min): immediate [Ca^2+]i rise followed by sustained [Ca^2+]i oscillations
